Where a name gives a salt, the structure may show the parent alone.
Columns and labels:
[1] = S. Cuzzocrea et al., Br. J. Pharmacol. 121 (1997); cited from earlier work
[2] = Determination of the water solubility; format: physicochemical; conditions: pH of from 5 to 6 with sodium acetate solution
Description: A compound to be measured was dissolved directly in a specified volume of water and the resulting solution was brought to a pH of from 5 to 6 with a sodium acetate solution so that the concentration of the active compound to be tested was reached. If the test substance was not present as a water-soluble salt, it was dissolved in a very small amount of dimethyl sulfoxide and then diluted with water (final concentration of dimethyl sulfoxide≦1%), after which the pH was adjusted here too. Here, Example 1 according to the invention gave a solubility of >0.5%.

solubility [2] [%]	Compound	protective effects in a model for circulatory shock [1]
	NC(=O)c1cccc(N)c1 [3-aminobenzamide]	protective effects
> 0.5	NC(=O)c1cccc2[nH]c(C3CCNCC3)nc12 [Example 1, 2-(Piperidin-4-yl)benzimidazole-4-carboxamide.2 HCl]	
